Experiment [1] is described as follows: Tested in vitro against HIV-1 LAI from MT-4 cells using MTT assay.
Experiment [2] in a line: Tested in vitro against HIV-1 MDR using MAGI assay.

By EC50 is commonly meant the concentration needed to bring the measured effect to its halfway point. A higher EC50 goes with weaker potency. In turn, `C#C[C@]1(CO)O[C@@H](n2cc(Cl)c(=O)[nH]c2=O)C[C@H]1O` came in with an EC50 in experiment [1] of 6000 nM. As for `C#C[C@]1(CO)O[C@@H](n2cc(F)c(=O)[nH]c2=O)C[C@H]1O`, the EC50 in experiment [1] was more than 10000 nM. Still for that read-out and setting: to `C#C[C@]1(CO)O[C@@H](n2cc(CC)c(=O)[nH]c2=O)C[C@H]1O` belongs more than 360000 nM; to `C#C[C@]1(CO)O[C@@H](n2cc(Br)c(=O)[nH]c2=O)C[C@H]1O`, 2300 nM. Take `C#C[C@]1(CO)O[C@@H](n2cc(I)c(=O)[nH]c2=O)C[C@H]1O` [1-(5-Ethynyl-4-hydroxy-5-hydroxymethyl-tetrahydro-furan-2-yl)-5-iodo-1H-pyrimidine-2,4-dione]: the EC50 in experiment [2] worked out at 620 nM; in experiment [1], 340 nM.

Turning to `C#C[C@]1(CO)O[C@@H](n2cc(C)c(=O)[nH]c2=O)C[C@H]1O` [1-(5-Ethynyl-4-hydroxy-5-hydroxymethyl-tetrahydro-furan-2-yl)-5-methyl-1H-pyrimidine-2,4-dione], the values for the EC50 in experiment [2] and in experiment [1] were 240 nM and 610 nM, respectively. On the same counts, the results for `Cc1cn([C@H]2C[C@H](N=[N+]=[N-])[C@@H](CO)O2)c(=O)[nH]c1=O` [1-((2R,4S,5S)-4-Azido-5-hydroxymethyl-tetrahydro-furan-2-yl)-5-methyl-1H-pyrimidine-2,4-dione] are 24900 nM and 38 nM. `C#C[C@]1(CO)O[C@@H](n2cnc3c(=O)[nH]c(N)nc32)C[C@H]1O` [2-Amino-9-(5-ethynyl-4-hydroxy-5-hydroxymethyl-tetrahydro-furan-2-yl)-9H-purin-6-ol] returned an EC50 in experiment [1] of 1.4 nM. Take `C#C[C@]1(CO)O[C@@H](n2cnc3cncnc32)C[C@H]1O` [2-Ethynyl-2-hydroxymethyl-5-purin-9-yl-tetrahydro-furan-3-ol]: the EC50 was found to be 145000 nM in experiment [2] and 117000 nM in experiment [1]. The like results for `C#C[C@]1(CO)O[C@@H](n2ccc(N)nc2=O)C[C@H]1O` [4-Amino-1-(5-ethynyl-4-hydroxy-5-hydroxymethyl-tetrahydro-furan-2-yl)-1H-pyrimidin-2-one] were, in that order, 1.5 nM and 4.8 nM. In the case of `C#C[C@]1(CO)O[C@@H](n2cc(F)c(N)nc2=O)C[C@H]1O` [4-Amino-1-(5-ethynyl-4-hydroxy-5-hydroxymethyl-tetrahydro-furan-2-yl)-5-fluoro-1H-pyrimidin-2-one], the figures for the EC50 in experiment [2] and in experiment [1] were 9 nM and 30 nM, respectively.

`C#C[C@]1(CO)O[C@@H](n2cc(C)c(N)nc2=O)C[C@H]1O` [4-Amino-1-(5-ethynyl-4-hydroxy-5-hydroxymethyl-tetrahydro-furan-2-yl)-5-methyl-1H-pyrimidin-2-one]: the EC50 in experiment [2] was found to be 4.5 nM; in experiment [1], 11 nM. On the same counts, the results for `C#C[C@]1(CO)O[C@@H](n2cnc3c(N)nc(N)nc32)C[C@H]1O` [5-(2,6-Diamino-purin-9-yl)-2-ethynyl-2-hydroxymethyl-tetrahydro-furan-3-ol] are 1.3 nM and 0.3 nM.

For the molecule `C#C[C@]1(CO)O[C@@H](n2cnc3c(N)ncnc32)C[C@H]1O` [5-(6-Amino-purin-9-yl)-2-ethynyl-2-hydroxymethyl-tetrahydro-furan-3-ol], the EC50 in experiment [1] worked out at 12 nM. As to `C#C[C@]1(CO)O[C@@H](n2cnc3c(=O)[nH]cnc32)C[C@H]1O` [9-(5-Ethynyl-4-hydroxy-5-hydroxymethyl-tetrahydro-furan-2-yl)-9H-purin-6-ol], the results for the EC50 in experiment [2] and in experiment [1] were 650 nM and 150 nM, respectively.

(Values after BindingDB's records for doi:10.1021/jm000209n (Tohoku University, 2000).)
